{
  "source": "ChEMBL document CHEMBL1201862",
  "about": "“PubChem BioAssay data set” (2004)",
  "assay_in_all_cases": "inhibition of tumour cell growth, NCI panel, 48 h",
  "key": {"OVCAR-3": {"system": "OVCAR-3"}, "SF-539": {"system": "SF-539"}, "OVCAR-8": {"system": "OVCAR-8"}, "HT-29": {"system": "HT-29"}, "Hs-578T": {"system": "Hs-578T"}, "ACHN": {"system": "ACHN"}, "K562": {"system": "K562"}, "SNB-75": {"system": "SNB-75"}, "UACC-257": {"system": "UACC-257"}, "PC-3": {"system": "PC-3"}, "MOLT-4": {"system": "MOLT-4"}, "SR": {"system": "SR"}, "COLO 205": {"system": "COLO 205"}, "BT-549": {"system": "BT-549"}, "MDA-N": {"system": "MDA-N"}, "RPMI-8226": {"system": "RPMI-8226"}, "SW-620": {"system": "SW-620"}, "UO-31": {"system": "UO-31"}, "MDA-MB-435": {"system": "MDA-MB-435"}},
  "note": "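Five concentrations, 48 hours, 96-well plates. At the GI50, growth is halved.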 Calls of active or inactive are those of the source. Cut-off read from the data, not from the text of the source: active = GI50 up to about 1.1 µM and inactive = higher.",
  "data": [
    {"smiles": "CC(=O)OCC(C)(COC(C)=O)N1C(=O)C2C3c4ccccc4C(c4ccccc43)C2C1=O", "note": "(configuration not stated)", "values": [
      {"measurement": "GI50", "setting": "OVCAR-3", "result": "> 100 µM (inactive)"},
      {"measurement": "GI50", "setting": "SF-539", "result": "> 100 µM (inactive)"},
      {"measurement": "GI50", "setting": "OVCAR-8", "result": "> 100 µM (inactive)"},
      {"measurement": "GI50", "setting": "HT-29", "result": "> 100 µM (inactive)"},
      {"measurement": "GI50", "setting": "Hs-578T", "result": "> 100 µM (inactive)"},
      {"measurement": "GI50", "setting": "ACHN", "result": "> 100 µM (inactive)"},
      {"measurement": "GI50", "setting": "K562", "result": "> 100 µM (inactive)"},
      {"measurement": "GI50", "setting": "SNB-75", "result": "49.7 µM (inactive)"},
      {"measurement": "GI50", "setting": "UACC-257", "result": "> 100 µM (inactive)"},
      {"measurement": "GI50", "setting": "PC-3", "result": "> 100 µM (inactive)"},
      {"measurement": "GI50", "setting": "MOLT-4", "result": "> 100 µM (inactive)"},
      {"measurement": "GI50", "setting": "SR", "result": "> 100 µM (inactive)"},
      {"measurement": "GI50", "setting": "COLO 205", "result": "> 100 µM (inactive)"},
      {"measurement": "GI50", "setting": "BT-549", "result": "> 100 µM (inactive)"},
      {"measurement": "GI50", "setting": "MDA-N", "result": "28.1 µM (inactive)"},
      {"measurement": "GI50", "setting": "RPMI-8226", "result": "> 100 µM (inactive)"},
      {"measurement": "GI50", "setting": "SW-620", "result": "> 100 µM (inactive)"},
      {"measurement": "GI50", "setting": "UO-31", "result": "> 100 µM (inactive)"},
      {"measurement": "GI50", "setting": "MDA-MB-435", "result": "> 100 µM (inactive)"}
    ]},
    {"smiles": "COC(=O)C(Cc1ccccc1)NP(=O)(O)OCC1OC(n2cc(F)c(=O)[nH]c2=O)CC1O", "note": "(configuration not stated)", "values": [
      {"measurement": "GI50", "setting": "OVCAR-3", "result": "> 100 µM (inactive)"},
      {"measurement": "GI50", "setting": "SF-539", "result": "0.991 µM (active)"},
      {"measurement": "GI50", "setting": "OVCAR-8", "result": "9.12 µM (inactive)"},
      {"measurement": "GI50", "setting": "HT-29", "result": "11.2 µM (inactive)"},
      {"measurement": "GI50", "setting": "Hs-578T", "result": "> 82.8 µM (inactive)"},
      {"measurement": "GI50", "setting": "ACHN", "result": "1.44 µM (inactive)"},
      {"measurement": "GI50", "setting": "K562", "result": "65.3 µM (inactive)"},
      {"measurement": "GI50", "setting": "SNB-75", "result": "> 31.9 µM (inactive)"},
      {"measurement": "GI50", "setting": "UACC-257", "result": "> 56 µM (inactive)"},
      {"measurement": "GI50", "setting": "PC-3", "result": "> 78.5 µM (inactive)"},
      {"measurement": "GI50", "setting": "MOLT-4", "result": "4.78 µM (inactive)"},
      {"measurement": "GI50", "setting": "SR", "result": "2.54 µM (inactive)"},
      {"measurement": "GI50", "setting": "COLO 205", "result": "74 µM (inactive)"},
      {"measurement": "GI50", "setting": "BT-549", "result": "> 100 µM (inactive)"},
      {"measurement": "GI50", "setting": "MDA-N", "result": "> 69 µM (inactive)"},
      {"measurement": "GI50", "setting": "RPMI-8226", "result": "> 79.6 µM (inactive)"},
      {"measurement": "GI50", "setting": "SW-620", "result": "> 100 µM (inactive)"},
      {"measurement": "GI50", "setting": "UO-31", "result": "5.24 µM (inactive)"},
      {"measurement": "GI50", "setting": "MDA-MB-435", "result": "> 86.3 µM (inactive)"}
    ]},
    {"smiles": "Cc1ccc(/C=C2\\CCC/C(=C\\c3ccc(O)c(CN4CCCCC4)c3)C2=O)cc1", "values": [
      {"measurement": "GI50", "setting": "OVCAR-3", "result": "10.9 µM (inactive)"},
      {"measurement": "GI50", "setting": "SF-539", "result": "9.42 µM (inactive)"},
      {"measurement": "GI50", "setting": "OVCAR-8", "result": "2.97 µM (inactive)"},
      {"measurement": "GI50", "setting": "HT-29", "result": "1.87 µM (inactive)"},
      {"measurement": "GI50", "setting": "Hs-578T", "result": "7.78 µM (inactive)"},
      {"measurement": "GI50", "setting": "ACHN", "result": "5.61 µM (inactive)"},
      {"measurement": "GI50", "setting": "K562", "result": "3.56 µM (inactive)"},
      {"measurement": "GI50", "setting": "SNB-75", "result": "6.49 µM (inactive)"},
      {"measurement": "GI50", "setting": "UACC-257", "result": "5.09 µM (inactive)"},
      {"measurement": "GI50", "setting": "PC-3", "result": "8.05 µM (inactive)"},
      {"measurement": "GI50", "setting": "MOLT-4", "result": "3.6 µM (inactive)"},
      {"measurement": "GI50", "setting": "SR", "result": "3.71 µM (inactive)"},
      {"measurement": "GI50", "setting": "COLO 205", "result": "5.2 µM (inactive)"},
      {"measurement": "GI50", "setting": "BT-549", "result": "6.62 µM (inactive)"},
      {"measurement": "GI50", "setting": "MDA-N", "result": "4.22 µM (inactive)"},
      {"measurement": "GI50", "setting": "RPMI-8226", "result": "5.08 µM (inactive)"},
      {"measurement": "GI50", "setting": "SW-620", "result": "3.6 µM (inactive)"},
      {"measurement": "GI50", "setting": "UO-31", "result": "11.2 µM (inactive)"},
      {"measurement": "GI50", "setting": "MDA-MB-435", "result": "3.41 µM (inactive)"}
    ]}
  ]
}
